Test results reported in patent US20080009418A1, “Selective Inhibitors” (Alchemia LTD., priority 2004, published 2008).

Tests used:
Human δ-opioid (DOP) = target: T1, Human δ-opioid (DOP) (Homo sapiens, UniProt P41143); test: Radioligand binding, human δ-opioid (DOP) membranes, FlashPlate, [3H]-Bremazocine; conditions: compound at 10 μM; [3H]-Bremazocine
T1 construct: purchased Perkin Elmer Biosignal
Method in brief: (§1)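 Cloned human receptor membranes were coated onto FlashPlate wells and incubated with radioligand and compound (added from a 0.5 mM DMSO daughter plate) for 1 hour at room temperature in the dark. Scintillation counting gave percent inhibition, with DMSO defining total and reference ligand defining non-specific binding.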

Human κ-Opioid (KOP) = target: T2, Human κ-Opioid (KOP) (Homo sapiens, UniProt P41145); test: Radioligand binding, human κ-opioid (KOP) membranes, filtration, [3H]-Diprenorphine; conditions: compound at 10 μM; [3H]-Diprenorphine
T2 construct: purchased Perkin Elmer Biosignal
Method in brief: (§2)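 Membranes from cloned human receptors were incubated with compound and radioligand for 1 hour at room temperature. Bound ligand was collected on 0.3% PEI-soaked filters, washed with cold 50 mM Tris-HCl pH 7.4, and counted by scintillation. Percent inhibition was computed against DMSO totals and reference-ligand nonspecific wells.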

Human Melanocortin (MC3) = target: T3, Human Melanocortin (MC3) (Homo sapiens, UniProt P41968); test: Radioligand binding, human melanocortin MC3 membranes, FlashPlate, [125I]-NDP-αMSH; conditions: compound at 10 μM; [125I]-NDP-αMSH
T3 construct: purchased Perkin Elmer Biosignal
Method in brief: as §1

Human Melanocortin (MC4) = target: T4, Human Melanocortin (MC4) (Homo sapiens, UniProt P32245); test: Radioligand binding, human melanocortin MC4 membranes, FlashPlate, [125I]-NDP-αMSH; conditions: compound at 10 μM; [125I]-NDP-αMSH
T4 construct: purchased Perkin Elmer Biosignal
Method in brief: as §1

Human melanocortin (MC5) = target: T5, Human melanocortin (MC5) (Homo sapiens, UniProt P33032); test: Radioligand binding, human melanocortin MC5 membranes, FlashPlate, [125I]-NDP-αMSH; conditions: compound at 10 μM; [125I]-NDP-αMSH
T5 construct: purchased Perkin Elmer Biosignal
Method in brief: as §1

[1] = target: T6, Human melanin-concentrating hormone (MCH1) (Homo sapiens, UniProt Q99705); test: Radioligand binding, human melanin-concentrating hormone MCH1 membranes, FlashPlate, [125I]-S36057; conditions: compound at 10 μM; [125I]-S36057
T6 construct: purchased Perkin Elmer Biosignal
Method in brief: as §1

Human μ-opioid (MOP) = target: T7, Human μ-opioid (MOP) (Homo sapiens, UniProt P35372); test: Radioligand binding, human μ-opioid (MOP) membranes, FlashPlate, [3H]-Naloxone; conditions: compound at 10 μM; [3H]-Naloxone
T7 construct: purchased Perkin Elmer Biosignal
Method in brief: as §1

Human neurokinin (NK1) = target: T8, Human neurokinin (NK1) (Homo sapiens, UniProt P25103); test: Radioligand binding, human neurokinin NK1 membranes, filtration, [125I]-Substance P; conditions: compound at 10 μM; [125I]-Substance P
T8 construct: purchased Perkin Elmer Biosignal
Method in brief: as §2

[2] = target: T9, Human neuropeptide Y (NPY-Y1) (Homo sapiens, UniProt P25929); test: Radioligand binding, human neuropeptide Y NPY-Y1 membranes, FlashPlate, [125I]-PYY; conditions: compound at 10 μM; [125I]-PYY
T9 construct: purchased Perkin Elmer Biosignal
T9 sequence (P25929 1-384): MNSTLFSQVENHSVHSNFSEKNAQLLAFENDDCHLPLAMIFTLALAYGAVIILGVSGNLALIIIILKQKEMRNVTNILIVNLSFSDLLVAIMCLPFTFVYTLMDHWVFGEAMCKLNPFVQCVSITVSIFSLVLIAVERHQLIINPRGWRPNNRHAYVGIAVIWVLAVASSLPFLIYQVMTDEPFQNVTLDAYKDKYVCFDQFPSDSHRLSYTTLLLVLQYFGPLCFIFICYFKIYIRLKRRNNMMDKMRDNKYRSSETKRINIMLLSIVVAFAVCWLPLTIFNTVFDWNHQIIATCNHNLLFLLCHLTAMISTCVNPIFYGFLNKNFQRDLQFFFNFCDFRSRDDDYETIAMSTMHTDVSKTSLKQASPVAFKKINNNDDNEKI
Method in brief: as §1

Human opioid (ORL1) = target: T10, Human opioid (ORL1) (Homo sapiens, UniProt P41146); test: Radioligand binding, human opioid ORL1 membranes, FlashPlate, [125I]-Nociceptin; conditions: compound at 10 μM; [125I]-Nociceptin
T10 construct: purchased Perkin Elmer Biosignal
Method in brief: as §1

Mouse urotensin (mUR2) = target: T11, Mouse urotensin (mUR2) (Mus musculus, UniProt Q8VIH9); test: Radioligand binding, mouse urotensin mUR2 membranes, FlashPlate, [125I]-Urotensin II; conditions: compound at 10 μM; [125I]-Urotensin II
T11 construct: purchased Perkin Elmer Biosignal
T11 sequence (Q8VIH9 1-385): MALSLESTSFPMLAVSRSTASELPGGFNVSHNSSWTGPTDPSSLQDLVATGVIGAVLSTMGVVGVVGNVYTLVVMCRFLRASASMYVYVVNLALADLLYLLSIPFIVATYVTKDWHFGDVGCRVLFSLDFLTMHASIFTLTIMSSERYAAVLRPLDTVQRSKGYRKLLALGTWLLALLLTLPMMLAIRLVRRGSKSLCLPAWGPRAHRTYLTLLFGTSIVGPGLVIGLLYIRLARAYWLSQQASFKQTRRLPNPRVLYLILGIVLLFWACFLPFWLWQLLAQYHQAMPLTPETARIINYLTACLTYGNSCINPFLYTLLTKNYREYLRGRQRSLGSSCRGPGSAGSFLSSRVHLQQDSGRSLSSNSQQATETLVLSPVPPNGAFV
Method in brief: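 Cloned mouse urotensin (mUR2) receptor membranes from Perkin Elmer Biosignal were immobilized in FlashPlate microplates using a proprietary coating. Each well got 19.5 μl buffer, then 0.5 μl of DMSO, reference ligand, or compound. Adding 5 μl of [125I]-Urotensin II, diluted to 5× final concentration in binding buffer, started binding. Plates were sealed with TopSeal-A and incubated 1 hour at room temperature in the dark. Wells were counted for 30 seconds each on a TopCount after a 60-second delay, and percentage inhibition was calculated.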

T1 sequence (P41143 whole entry): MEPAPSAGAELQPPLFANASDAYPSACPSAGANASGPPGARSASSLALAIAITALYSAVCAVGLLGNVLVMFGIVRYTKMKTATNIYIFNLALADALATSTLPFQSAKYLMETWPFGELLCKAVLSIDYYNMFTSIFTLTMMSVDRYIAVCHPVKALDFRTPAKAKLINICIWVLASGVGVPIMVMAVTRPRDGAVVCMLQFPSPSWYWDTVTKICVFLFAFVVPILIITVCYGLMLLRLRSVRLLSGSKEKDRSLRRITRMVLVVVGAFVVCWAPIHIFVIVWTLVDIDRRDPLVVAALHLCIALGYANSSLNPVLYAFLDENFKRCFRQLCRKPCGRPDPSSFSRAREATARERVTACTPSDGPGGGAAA
T10 sequence (P41146 whole entry): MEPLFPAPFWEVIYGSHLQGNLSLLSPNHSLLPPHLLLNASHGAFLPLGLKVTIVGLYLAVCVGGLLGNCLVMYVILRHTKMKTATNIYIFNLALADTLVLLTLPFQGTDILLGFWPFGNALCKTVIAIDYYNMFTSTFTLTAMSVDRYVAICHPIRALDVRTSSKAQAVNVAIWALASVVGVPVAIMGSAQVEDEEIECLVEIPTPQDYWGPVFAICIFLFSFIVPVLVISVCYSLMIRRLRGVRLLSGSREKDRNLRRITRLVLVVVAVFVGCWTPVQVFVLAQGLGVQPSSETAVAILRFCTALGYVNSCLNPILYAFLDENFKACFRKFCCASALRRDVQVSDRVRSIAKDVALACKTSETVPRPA
T4 sequence (P32245 whole entry): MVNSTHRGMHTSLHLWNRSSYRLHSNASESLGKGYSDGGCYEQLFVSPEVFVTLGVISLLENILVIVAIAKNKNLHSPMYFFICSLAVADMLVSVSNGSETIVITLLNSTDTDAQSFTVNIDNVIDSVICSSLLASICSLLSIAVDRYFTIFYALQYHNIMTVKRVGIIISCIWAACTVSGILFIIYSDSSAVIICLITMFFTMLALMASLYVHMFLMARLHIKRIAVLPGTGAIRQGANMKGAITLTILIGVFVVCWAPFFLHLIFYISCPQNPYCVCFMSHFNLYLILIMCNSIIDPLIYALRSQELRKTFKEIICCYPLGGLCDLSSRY
T8 sequence (P25103 whole entry): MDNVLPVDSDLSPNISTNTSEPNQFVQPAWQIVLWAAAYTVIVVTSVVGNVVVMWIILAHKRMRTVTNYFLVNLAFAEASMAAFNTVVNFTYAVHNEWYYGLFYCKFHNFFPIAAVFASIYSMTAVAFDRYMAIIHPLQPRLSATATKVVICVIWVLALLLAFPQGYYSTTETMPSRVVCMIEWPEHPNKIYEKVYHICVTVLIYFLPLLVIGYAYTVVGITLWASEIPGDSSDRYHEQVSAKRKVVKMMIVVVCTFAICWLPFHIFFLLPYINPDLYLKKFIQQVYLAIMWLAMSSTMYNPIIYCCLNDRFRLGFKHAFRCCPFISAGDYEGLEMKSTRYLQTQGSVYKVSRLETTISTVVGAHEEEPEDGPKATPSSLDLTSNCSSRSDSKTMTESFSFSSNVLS
T5 sequence (P33032 whole entry): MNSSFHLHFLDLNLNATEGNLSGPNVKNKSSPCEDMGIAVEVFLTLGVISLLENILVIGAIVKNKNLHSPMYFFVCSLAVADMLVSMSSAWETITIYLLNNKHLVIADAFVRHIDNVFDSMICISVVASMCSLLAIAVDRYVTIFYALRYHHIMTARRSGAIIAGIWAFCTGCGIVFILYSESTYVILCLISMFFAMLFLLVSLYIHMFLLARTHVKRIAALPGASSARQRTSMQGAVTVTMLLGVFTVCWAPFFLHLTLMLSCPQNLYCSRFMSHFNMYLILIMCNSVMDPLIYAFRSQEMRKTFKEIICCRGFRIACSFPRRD
T3 sequence (P41968 whole entry): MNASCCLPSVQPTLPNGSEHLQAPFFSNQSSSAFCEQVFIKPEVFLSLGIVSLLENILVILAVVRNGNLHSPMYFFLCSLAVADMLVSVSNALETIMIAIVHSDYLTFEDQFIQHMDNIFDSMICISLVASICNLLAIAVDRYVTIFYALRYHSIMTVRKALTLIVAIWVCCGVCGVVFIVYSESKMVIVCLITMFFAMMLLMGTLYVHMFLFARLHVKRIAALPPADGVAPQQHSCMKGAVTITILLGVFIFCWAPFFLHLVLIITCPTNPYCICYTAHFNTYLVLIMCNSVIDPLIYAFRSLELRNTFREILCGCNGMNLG
T7 sequence (P35372 whole entry): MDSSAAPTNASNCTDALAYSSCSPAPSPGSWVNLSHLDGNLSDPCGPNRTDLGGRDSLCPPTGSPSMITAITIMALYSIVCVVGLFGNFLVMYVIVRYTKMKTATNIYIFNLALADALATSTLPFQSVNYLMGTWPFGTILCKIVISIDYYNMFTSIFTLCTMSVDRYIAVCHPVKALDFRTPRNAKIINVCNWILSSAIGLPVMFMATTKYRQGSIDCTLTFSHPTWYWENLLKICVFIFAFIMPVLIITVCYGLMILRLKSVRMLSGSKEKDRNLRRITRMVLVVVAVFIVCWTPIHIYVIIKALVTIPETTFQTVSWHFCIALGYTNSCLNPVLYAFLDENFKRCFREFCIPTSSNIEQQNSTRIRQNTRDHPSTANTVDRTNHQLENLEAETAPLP
T6 sequence (Q99705 whole entry): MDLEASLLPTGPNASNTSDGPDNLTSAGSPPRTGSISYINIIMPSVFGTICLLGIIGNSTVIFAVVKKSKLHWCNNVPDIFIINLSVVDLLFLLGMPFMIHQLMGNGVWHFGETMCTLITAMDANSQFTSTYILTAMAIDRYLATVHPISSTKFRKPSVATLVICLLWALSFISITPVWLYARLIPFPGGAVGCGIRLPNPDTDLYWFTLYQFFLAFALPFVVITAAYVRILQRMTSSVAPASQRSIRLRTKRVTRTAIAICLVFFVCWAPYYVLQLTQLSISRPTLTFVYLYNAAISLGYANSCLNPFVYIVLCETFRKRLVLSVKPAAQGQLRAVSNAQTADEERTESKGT
T2 sequence (P41145 whole entry): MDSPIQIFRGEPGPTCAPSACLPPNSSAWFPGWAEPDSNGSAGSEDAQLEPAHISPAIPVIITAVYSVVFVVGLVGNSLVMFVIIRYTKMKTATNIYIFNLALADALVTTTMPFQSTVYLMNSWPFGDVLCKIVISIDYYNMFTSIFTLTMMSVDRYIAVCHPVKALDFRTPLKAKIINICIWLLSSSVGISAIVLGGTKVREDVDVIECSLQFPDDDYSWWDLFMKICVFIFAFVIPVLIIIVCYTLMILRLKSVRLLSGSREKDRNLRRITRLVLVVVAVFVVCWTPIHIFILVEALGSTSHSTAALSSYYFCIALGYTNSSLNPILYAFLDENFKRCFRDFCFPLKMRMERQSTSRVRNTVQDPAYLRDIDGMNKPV

CSC1O[C@H](COCc2ccccc2)[C@@H](O)[C@@H](OCc2ccc(-c3ccccc3)cc2)[C@H]1NC(=O)CCNC(=N)N (stereo partly shown) [compound 286]
A1: inhibition of radioligand binding, human δ-opioid (DOP) (Human δ-opioid (DOP)): − (“−” indicates less than 50% inhibition at 10 μM) | A2: inhibition of radioligand binding, human κ-opioid (KOP) (Human κ-Opioid (KOP)): − (“−” indicates less than 50% inhibition at 10 μM) | A3: inhibition of radioligand binding, human melanocortin (MC3) (Human Melanocortin (MC3)): − (“−” indicates less than 50% inhibition at 10 μM) | A4: inhibition of radioligand binding, human melanocortin (MC4) (Human Melanocortin (MC4)): − (“−” indicates less than 50% inhibition at 10 μM) | A5: inhibition of radioligand binding, human melanocortin (MC5) (Human melanocortin (MC5)): + (“+” indicates greater than 50% inhibition at 10 μM) | A6: inhibition of radioligand binding, human melanin-concentrating hormone (MCH1) [1]: − (“−” indicates less than 50% inhibition at 10 μM) | A7: inhibition of radioligand binding, human μ-opioid (MOP) (Human μ-opioid (MOP)): − (“−” indicates less than 50% inhibition at 10 μM) | A8: inhibition of radioligand binding, human neurokinin (NK1) (Human neurokinin (NK1)): + (“+” indicates greater than 50% inhibition at 10 μM) | A9: inhibition of radioligand binding, human neuropeptide Y (NPY-Y1) [2]: − (“−” indicates less than 50% inhibition at 10 μM) | A10: inhibition of radioligand binding, human opioid (ORL1) (Human opioid (ORL1)): − (“−” indicates less than 50% inhibition at 10 μM) | A11: inhibition of radioligand binding, mouse urotensin (mUR2) (Mouse urotensin (mUR2)): − (“−” indicates less than 50% inhibition at 10 μM)

CSC1O[C@H](COCc2ccccc2)[C@@H](O)[C@@H](OCc2ccc(-c3ccccc3)cc2)[C@H]1NC(=O)CCCNC(=N)N (stereo partly shown) [compound 287]
A1: inhibition of radioligand binding, human δ-opioid (DOP) (Human δ-opioid (DOP)): − (“−” indicates less than 50% inhibition at 10 μM) | A2: inhibition of radioligand binding, human κ-opioid (KOP) (Human κ-Opioid (KOP)): − (“−” indicates less than 50% inhibition at 10 μM) | A3: inhibition of radioligand binding, human melanocortin (MC3) (Human Melanocortin (MC3)): − (“−” indicates less than 50% inhibition at 10 μM) | A4: inhibition of radioligand binding, human melanocortin (MC4) (Human Melanocortin (MC4)): − (“−” indicates less than 50% inhibition at 10 μM) | A5: inhibition of radioligand binding, human melanocortin (MC5) (Human melanocortin (MC5)): − (“−” indicates less than 50% inhibition at 10 μM) | A6: inhibition of radioligand binding, human melanin-concentrating hormone (MCH1) [1]: − (“−” indicates less than 50% inhibition at 10 μM) | A7: inhibition of radioligand binding, human μ-opioid (MOP) (Human μ-opioid (MOP)): − (“−” indicates less than 50% inhibition at 10 μM) | A8: inhibition of radioligand binding, human neurokinin (NK1) (Human neurokinin (NK1)): + (“+” indicates greater than 50% inhibition at 10 μM) | A9: inhibition of radioligand binding, human neuropeptide Y (NPY-Y1) [2]: − (“−” indicates less than 50% inhibition at 10 μM) | A10: inhibition of radioligand binding, human opioid (ORL1) (Human opioid (ORL1)): − (“−” indicates less than 50% inhibition at 10 μM) | A11: inhibition of radioligand binding, mouse urotensin (mUR2) (Mouse urotensin (mUR2)): − (“−” indicates less than 50% inhibition at 10 μM)

CSC1O[C@H](COCc2ccc(Cl)cc2)[C@@H](O)[C@@H](OCc2ccc(-c3ccccc3)cc2)[C@H]1NC(=O)CN (stereo partly shown) [compound 288]
A1: inhibition of radioligand binding, human δ-opioid (DOP) (Human δ-opioid (DOP)): − (“−” indicates less than 50% inhibition at 10 μM) | A2: inhibition of radioligand binding, human κ-opioid (KOP) (Human κ-Opioid (KOP)): − (“−” indicates less than 50% inhibition at 10 μM) | A3: inhibition of radioligand binding, human melanocortin (MC3) (Human Melanocortin (MC3)): − (“−” indicates less than 50% inhibition at 10 μM) | A4: inhibition of radioligand binding, human melanocortin (MC4) (Human Melanocortin (MC4)): − (“−” indicates less than 50% inhibition at 10 μM) | A5: inhibition of radioligand binding, human melanocortin (MC5) (Human melanocortin (MC5)): − (“−” indicates less than 50% inhibition at 10 μM) | A6: inhibition of radioligand binding, human melanin-concentrating hormone (MCH1) [1]: − (“−” indicates less than 50% inhibition at 10 μM) | A7: inhibition of radioligand binding, human μ-opioid (MOP) (Human μ-opioid (MOP)): − (“−” indicates less than 50% inhibition at 10 μM) | A8: inhibition of radioligand binding, human neurokinin (NK1) (Human neurokinin (NK1)): + (“+” indicates greater than 50% inhibition at 10 μM) | A9: inhibition of radioligand binding, human neuropeptide Y (NPY-Y1) [2]: − (“−” indicates less than 50% inhibition at 10 μM) | A10: inhibition of radioligand binding, human opioid (ORL1) (Human opioid (ORL1)): − (“−” indicates less than 50% inhibition at 10 μM) | A11: inhibition of radioligand binding, mouse urotensin (mUR2) (Mouse urotensin (mUR2)): − (“−” indicates less than 50% inhibition at 10 μM)

CSC1O[C@H](COCc2ccc(Cl)cc2)[C@@H](O)[C@@H](OCc2ccc(-c3ccccc3)cc2)[C@H]1NC(=O)CNC(=N)N (stereo partly shown) [compound 289]
A1: inhibition of radioligand binding, human δ-opioid (DOP) (Human δ-opioid (DOP)): − (“−” indicates less than 50% inhibition at 10 μM) | A2: inhibition of radioligand binding, human κ-opioid (KOP) (Human κ-Opioid (KOP)): − (“−” indicates less than 50% inhibition at 10 μM) | A3: inhibition of radioligand binding, human melanocortin (MC3) (Human Melanocortin (MC3)): − (“−” indicates less than 50% inhibition at 10 μM) | A4: inhibition of radioligand binding, human melanocortin (MC4) (Human Melanocortin (MC4)): + (“+” indicates greater than 50% inhibition at 10 μM) | A5: inhibition of radioligand binding, human melanocortin (MC5) (Human melanocortin (MC5)): + (“+” indicates greater than 50% inhibition at 10 μM) | A6: inhibition of radioligand binding, human melanin-concentrating hormone (MCH1) [1]: − (“−” indicates less than 50% inhibition at 10 μM) | A7: inhibition of radioligand binding, human μ-opioid (MOP) (Human μ-opioid (MOP)): − (“−” indicates less than 50% inhibition at 10 μM) | A8: inhibition of radioligand binding, human neurokinin (NK1) (Human neurokinin (NK1)): + (“+” indicates greater than 50% inhibition at 10 μM) | A9: inhibition of radioligand binding, human neuropeptide Y (NPY-Y1) [2]: − (“−” indicates less than 50% inhibition at 10 μM) | A10: inhibition of radioligand binding, human opioid (ORL1) (Human opioid (ORL1)): − (“−” indicates less than 50% inhibition at 10 μM) | A11: inhibition of radioligand binding, mouse urotensin (mUR2) (Mouse urotensin (mUR2)): − (“−” indicates less than 50% inhibition at 10 μM)

CSC1O[C@H](COCc2ccc(Cl)cc2)[C@@H](O)[C@@H](OCc2ccc(-c3ccccc3)cc2)[C@H]1NC(=O)CCN (stereo partly shown) [compound 290]
A1: inhibition of radioligand binding, human δ-opioid (DOP) (Human δ-opioid (DOP)): − (“−” indicates less than 50% inhibition at 10 μM) | A2: inhibition of radioligand binding, human κ-opioid (KOP) (Human κ-Opioid (KOP)): − (“−” indicates less than 50% inhibition at 10 μM) | A3: inhibition of radioligand binding, human melanocortin (MC3) (Human Melanocortin (MC3)): − (“−” indicates less than 50% inhibition at 10 μM) | A4: inhibition of radioligand binding, human melanocortin (MC4) (Human Melanocortin (MC4)): − (“−” indicates less than 50% inhibition at 10 μM) | A5: inhibition of radioligand binding, human melanocortin (MC5) (Human melanocortin (MC5)): + (“+” indicates greater than 50% inhibition at 10 μM) | A6: inhibition of radioligand binding, human melanin-concentrating hormone (MCH1) [1]: − (“−” indicates less than 50% inhibition at 10 μM) | A7: inhibition of radioligand binding, human μ-opioid (MOP) (Human μ-opioid (MOP)): − (“−” indicates less than 50% inhibition at 10 μM) | A8: inhibition of radioligand binding, human neurokinin (NK1) (Human neurokinin (NK1)): + (“+” indicates greater than 50% inhibition at 10 μM) | A9: inhibition of radioligand binding, human neuropeptide Y (NPY-Y1) [2]: − (“−” indicates less than 50% inhibition at 10 μM) | A10: inhibition of radioligand binding, human opioid (ORL1) (Human opioid (ORL1)): − (“−” indicates less than 50% inhibition at 10 μM) | A11: inhibition of radioligand binding, mouse urotensin (mUR2) (Mouse urotensin (mUR2)): − (“−” indicates less than 50% inhibition at 10 μM)
